# Assay results as given in patent US20150224085A1, “METHOD OF ADMINISTERING A 5,5-FUSED HETEROARYLENE HEPATITIS C VIRUS INHIBITOR FOR TREATING OF PREVENTING HEPATITIS C VIRUS INFECTION” (priority 2012, published 2015).
# What was measured:
# HCV Genotype 2 = assay: Phase I/IIa Group B: plasma HCV RNA reduction after single dose, Genotype 2; format: in vivo, hepatitis C virus; conditions: 1 subject
# Description: (§1) The phase I/IIa study was designed to evaluate safety and tolerability, pharmacokinetics (PK), food effect, and antiviral activity with regard to the Compound. The key safety parameters that were evaluated in the trial include adverse events (AEs), physical examination, vital signs, 12-lead electrocardiogram (ECG), and standard safety laboratory tests. The key antiviral activity parameters that were evaluated in the trial include changes in plasma HCV RNA and emergence of resistance mutations. The key pharmacokinetic parameters that were evaluated in the trial include plasma and urine concentrations of the Compound.
# (§2) In the phase I/IIa study, plasma HCV RNA was quantitated using a validated commercial assay (COBAS® TAQMAN®) with a lower limit of quantitation of 25 IU/mL. HCV RNA genotyping was performed at Baseline using the Versant HCV Genotype Assay (LiPA) 2.0.
# (§3) In Group B, the Compound was evaluated in an open-label, single day study in 18 subjects with chronic HCV Genotype 1, 2, or 3 infection. […] For all cohorts, dosing was under fasted in this study.
# [1] = 28-day toxicity study in mice
# Description: Safety margins were calculated based upon proposed human doses in the first-in-human trial and human equivalent dose (HED) calculations derived from the two 28-day toxicology studies in mice and monkeys. This approach is consistent with the United States Food and Drug Administration Guidance for Industry entitled “Estimating the Maximum Safe Starting Dose in Initial Clinical Trials for Therapeutics in Adult Healthy Volunteers,” July 2005.
# [2] = system: genotype 2 replicon with L31M substitution (NS5A M31); assay: HCV replicon model, resistance; format: cell-based, hepatitis C virus
# HCV Genotype 1b = assay: Phase I/IIa Group B: plasma HCV RNA reduction after single dose, Genotype 1b; format: in vivo, hepatitis C virus; conditions: 1 subject
# Description: as §1, §2, §3
# HCV Genotype 1a [3] = assay: Phase I/IIa Group C: HCV RNA reduction, 3-day dosing, Genotype 1a; format: in vivo, hepatitis C virus
# Description: as §1, §2
# (§4) In Group C, the Compound was evaluated in a randomized, double-blind, placebo-controlled, parallel dosing study in 34 treatment-naive, genotype 1 HCV-infected subjects.
# (§5) For all cohorts, dosing was under fasted in this study.
# [4] = system: HCV Genotypes 1, 2, 3, and 4; assay: Phase I/IIa Groups C and D: antiviral activity across genotypes; format: in vivo, hepatitis C virus
# Description: as §1, §2, §4
# (§6) In Group D, the Compound was evaluated in an randomized, double-blind, placebo-controlled, parallel dosing study in 30 treatment-naive, genotypes 2, 3, and 4 HCV-infected subjects.
# as §5
# [5] = Phase I/IIa Groups C and D: safety and tolerability; format: in vivo, human
# Description: as §1, §4, §6, §5
# HCV Genotype 1a [6] = assay: Phase I/IIa Group B: plasma HCV RNA reduction after single dose, Genotype 1a; format: in vivo, hepatitis C virus; conditions: for Maximum Viral Load Reduction after Single Dose: 1 subject; for Mean maximum viral load reduction after Single Dose: 2 subjects
# Description: as §1, §2, §3
# clinical = conditions: human, in vivo
# Description: as §1, §2, §3
compound,measurement,setting,value
"COC(=O)N[C@H](C(=O)N1CCC[C@H]1c1nc2cc(-c3csc4c(-c5ccc(-c6cnc([C@@H]7CCCN7C(=O)[C@H](NC(=O)OC)c7ccccc7)[nH]6)cc5)csc34)ccc2[nH]1)C(C)C [the Compound, [(S)-1-((S)-2-{6-[6-(4-{(S)-2-[1-((R)-2-methoxycarbonylamino-2-phenyl-acetyl)-pyrrolidin-2-yl]-3H-imidazol-4-yl}-phenyl)-thieno[3,2-b]thiophen-3-yl]-1H-benzoimidazol-2-yl}-pyrrolidine-1-carbonyl)-2-methyl-propyl]-carbamic acid methyl ester]",Maximum Viral Load Reduction after Single Dose,HCV Genotype 2; 25 mg single dose,0.4 log10 IU/mL
same,Maximum Viral Load Reduction after Single Dose,HCV Genotype 2; 50 mg single dose,3.2 log10 IU/mL
same,Maximum Viral Load Reduction after Single Dose,HCV Genotype 2; 100 mg single dose,3.5 log10 IU/mL
same,no observable effect level (NOEL),[1]; 28-day mouse study,150 mg/kg/day
same,toxicological target,"[1]; 28 days, doses up to 250 mg/kg/day",did not define any toxicological target
same,NOAEL at 28 days,"[1]; both, mouse, in vivo",250 mg/kg/day
same,liver histology,"[1]; males and females, 250 mg/kg/day",minimal to mild diffuse hypertrophy of centrilobular hepatocytes
same,increase in plasma levels with dose,"[1]; mouse, in vivo, 150 mg/kg/day",little or no increase
same,Mean ALT values at Day 29,"[1]; mouse, in vivo, 250 mg/kg/day",88.4 U/L
same,"Margin of Safety, Mouse",[1]; proposed human dose 1 mg/subject/day (0.02 mg/kg/day),610 fold
same,"Margin of Safety, Mouse",[1]; proposed human dose 5 mg/subject/day (0.08 mg/kg/day),153 fold
same,"Margin of Safety, Mouse",[1]; proposed human dose 10 mg/subject/day (0.17 mg/kg/day),72 fold
same,"Margin of Safety, Mouse",[1]; proposed human dose 25 mg/subject/day (0.42 mg/kg/day),29 fold
same,"Margin of Safety, Mouse",[1]; proposed human dose 50 mg/subject/day (0.83 mg/kg/day),15 fold
same,resistance conferred by L31M substitution (NS5A M31 polymorphism),[2],75 fold
same,Maximum Viral Load Reduction after Single Dose,HCV Genotype 1b; 1 mg single dose,3.1^2 log10 IU/mL
same,Maximum Viral Load Reduction after Single Dose,HCV Genotype 1b; 10 mg single dose,3.7^2 log10 IU/mL
same,Maximum Viral Load Reduction after Single Dose,HCV Genotype 1b; 50 mg single dose,3.2^2 log10 IU/mL
same,Maximum Viral Load Reduction after Single Dose,HCV Genotype 1b; 100 mg single dose,3.7^2 log10 IU/mL
same,Mean (Range) Maximal HCV RNA Reduction from Baseline,"HCV Genotype 1a [3]; 25 mg QD x 3 days, n = 5",3.3 (2.9-3.7) log10 IU/mL
same,Mean (Range) Maximal HCV RNA Reduction from Baseline,"HCV Genotype 1a [3]; 50 mg BID x 3 days, n = 6",3.2 (2.7-3.8) log10 IU/mL
same,Mean (Range) Maximal HCV RNA Reduction from Baseline,"HCV Genotype 1a [3]; 50 mg QD x 3 days, n = 6",3.6 (3.3-3.9) log10 IU/mL
same,Mean (Range) Maximal HCV RNA Reduction from Baseline,"HCV Genotype 1a [3]; 100 mg QD x 3 days, n = 6",3.5 (2.6-4.3) log10 IU/mL
same,antiviral activity,"[4]; Genotype 1, 2, 3, and 4 HCV-infected subjects","potent, pan-genotypic antiviral activity"
same,rebound (>1.0 log10 IU/mL increase over nadir),[4]; during the 3 days of dosing,No subject experienced a rebound
same,mean maximal HCV RNA reductions,"[4]; total dose of 100 mg/day for 3 days, Genotypes 1, 3, and 4",approximately 3.5 log10 IU/mL
same,intensity of adverse events,[5]; Groups C and D,mild or moderate
same,most common adverse events,[5]; Groups C and D,"headache, constipation, and nausea"
same,discontinuations and serious adverse events,"[5]; Groups C and D, 25 to 100 mg/day x 3 days",no safety-related discontinuations or serious adverse events
same,safety and tolerability,[5]; daily doses up to 100 mg for 3 days,safe and well tolerated
same,Maximum Viral Load Reduction after Single Dose,HCV Genotype 1a [6]; 1 mg single dose,0.8^2 log10 IU/mL
same,Mean maximum viral load reduction after Single Dose,HCV Genotype 1a [6]; 5 mg single dose,2.6^1 log10 IU/mL
same,Maximum Viral Load Reduction after Single Dose,HCV Genotype 1a [6]; 10 mg single dose,2.9^2 log10 IU/mL
same,Mean maximum viral load reduction after Single Dose,HCV Genotype 1a [6]; 25 mg single dose,3.7^1 log10 IU/mL
same,Maximum Viral Load Reduction after Single Dose,HCV Genotype 1a [6]; 50 mg single dose,2.5^2 log10 IU/mL
same,Maximum Viral Load Reduction after Single Dose,HCV Genotype 1a [6]; 100 mg single dose,3.3^2 log10 IU/mL
same,exposure versus dose,clinical,Dose proportional exposure
same,AUC(0-inf),clinical; 1 mg,8 ± 5.8 ng·h/mL
same,Cmax,clinical; 1 mg,0.5 ± 0.4 ng/mL
same,Tmax,clinical; 1 mg,4 h
